Test system: Escherichia coli isolate
Test: Same-sample AST, bulk: filtration, RT-ddPCR of 23S rRNA, percent extracellular (Example 1)
Assay type: cell-based
Conditions: 1.0 μg/mL ETP, 37° C. 60 minutes; lower bound of 95% Poisson CI of percent extracellular vs threshold (control mean + 2 SD); three replicates
Procedure: The inoculum was small enough that no detectable difference in the sample's optical density at 600 mm (OD600) was detectable by a spectrophotometer with a sensitivity of 0.01 absorbance units. After an incubation at 37° C., the media became turbid with an OD600 of 0.26 absorbance units after 2 hours of incubation thus providing a bacteria batch culture.
To begin the AST protocol, 10 μL of the above bacteria batch culture was added to and mixed with 15 μL of Mueller-Hinton Broth (MHB) growth media containing 1.67 μg/mL of dissolved ertapenem (ETP) antibiotic to create a test condition antibiotic exposure with a final ETP concentration of 1.0 μg/mL.
In parallel, 10 μL of the batch culture was added to and mixed with 15 μL of Mueller-Hinton Broth (MHB) growth media containing no ETP to create a control condition antibiotic exposure corresponding to the 1 μg/mL test condition. The two antibiotic exposures were incubated at 37° C. for 60 minutes.
The entire volume of each antibiotic exposure was transferred to an individual cellulose acetate filter with a 0.2 μm pore size. Fluid that passes through the filter, called the “filtrate”, was collected in a clean microcentrifuge tube. The antibiotic exposures were centrifuged at 2200 relative centrifugal force to speed the passage of the antibiotic exposure through the filter and into the collecting vessel. […]

C[C@@H](O)[C@H]1C(=O)N2C(C(=O)O)=C(S[C@@H]3CN[C@H](C(=O)Nc4cccc(C(=O)O)c4)C3)[C@H](C)[C@H]12 [ETP, ertapenem]
susceptibility call: susceptible
